Consider six molecules from US20260183274A1, “PDK1 REGULATORY COMPOUND AND COMPOSITION CONTAINING THE SAME” (PROVIBIO CO., LTD., priority 2024, published 2026).

The test system of data set [1] is Human B Lymphocyte cell line, SU-DHL-8. Briefly: Relative cell viability CCK-8, SU-DHL-8. The format is cell-based. As to conditions: 48 hours, untreated (DMSO) = 100%; for viability at 1 µM / viability at 10 µM / viability at 30 µM / viability at 50 µM: Homo sapiens, SU-DHL-8, 48 h; for viability at 1 µM: read-out: Relative cell viability (%), SU-DHL-8, 1 μM; for viability at 10 µM: read-out: Relative cell viability (%), SU-DHL-8, 10 μM; for viability at 30 µM: read-out: Relative cell viability (%), SU-DHL-8, 30 μM; for viability at 50 µM: read-out: Relative cell viability (%), SU-DHL-8, 50 μM. An outline of the steps: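 Cells grown in RPMI-1640 with 10% FBS, treated with compound at several concentrations, then given CCK-8 for 4 h at 37° C. Viability expressed as percent of DMSO-treated cells.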

For data set [2], the system named is T cells isolated from mouse spleens. Put plainly: T cell proliferation inhibition (CFSE flow cytometry, anti-CD3/anti-CD28 stimulation). The format is cell-based. As to conditions: mouse spleen T cells, 3 days; for inhibition at 0.01 µM / inhibition at 0.1 µM / inhibition at 1 µM / inhibition at 10 µM / inhibition at 30 µM / inhibition at 50 µM: Mus musculus, T-cell, 72 h, read-out: Proliferation inhibition rate (%). The procedure, abridged:
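Proliferation inhibition (%) came from flow cytometry of CFSE dilution after 3 days' culture at 37 °C with compound (10 nM, 100 nM, 1, 10, 30, 50 μM; triplicate wells). Cells were magnetically purified T cells from C57BL/6 mouse spleens, 2×10^5 per well, stimulated with 0.5 μg/mL each anti-CD3 and anti-CD28.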

Regarding `Cl.O=C(NCCCCCCCCCCCCN1CCNCC1)c1ccc(-c2ccccc2)o1` [Compound 90, 5-Phenyl-N-(12-(piperazin-1-yl)dodecyl) furan-2-carboxamide hydrochloride], the “Relative cell viability (%), SU-DHL-8” value in data set [1] (1 μM) was determined as 7.19%; in data set [1] (10 μM) it was 5.94%; in data set [1] (30 μM) it was 2.48%; in data set [1] (50 μM), 1.94%. Also, the “Proliferation inhibition rate (%)” value in data set [2] (compound 10 nM) is on record as −8.27%; in data set [2] (compound 100 nM) it was −2.03%; in data set [2] (compound 1 μM), 66.18%; in data set [2] (compound 10 μM) it was 100.00%; in data set [2] (compound 30 μM), 100.00%; in data set [2] (compound 50 μM), 100.00%.

`Nc1ncccc1C(=O)NCCCCCCCCCCCCN1CC=CC1` [Compound 129, 2-amino-N-(12-(2,5-dihydro-1H-pyrrol-1-yl)dodecyl) nicotinamide]: the “Relative cell viability (%), SU-DHL-8” value came to 34.26% in data set [1] (1 μM), 33.99% in data set [1] (10 μM), 35.05% in data set [1] (30 μM) and 34.27% in data set [1] (50 μM). Also, the “Proliferation inhibition rate (%)” value in data set [2] (compound 10 nM) is recorded as 0.00%; in data set [2] (compound 100 nM) it was 90.00%; in data set [2] (compound 1 μM) it was 100.00%; in data set [2] (compound 10 μM) it was 100.00%; in data set [2] (compound 30 μM), 100.00%; in data set [2] (compound 50 μM), 100.00%.

For the molecule `CC1C2CCCN2CCN1CCCCCCCCCCCCNC(=O)c1cccnc1N` (centres unmarked) [Compound 29, 2-Amino-N-(12-(1-methylhexahydropyrrolo[1,2-a]pyrazin-2 (1H)-yl)dodecyl)nicotinamide], in data set [1], the viability (in general, the share of living cells, or the viability signal relative to a control) at 1 µM came to 3.85%; the viability at 10 µM was 1.86%; the viability at 30 µM came out at 1.25%; the viability at 50 µM came out at 1.03%. For the same molecule, the inhibition at 0.01 µM in data set [2] (compound 10 nM) came to 4.15%. In addition, the inhibition at 0.1 µM in data set [2] (compound 100 nM) is 100%. For the same molecule, the inhibition at 1 µM in data set [2] (compound 1 μM) amounted to 100%. For the same molecule, in data set [2] (compound 10 μM), the inhibition at 10 µM was found to be 100%. The inhibition at 30 µM in data set [2] (compound 30 μM) worked out at 100%. The inhibition at 50 µM in data set [2] (compound 50 μM) was 100%.

For the molecule `CC1CN(CCCCCCCCCCCCNC(=O)c2cccnc2N)CC(C)O1` (centres unmarked) [Compound 21, 2-Amino-N-(12-(2,6-dimethylmorpholino)dodecyl) nicotinamide], the figures for the “Relative cell viability (%), SU-DHL-8” value in data set [1] (1 μM), in data set [1] (10 μM) and in data set [1] (30 μM) were 9.64%, 7.68% and 3.70%, respectively. Moreover, the “Proliferation inhibition rate (%)” value in data set [2] (compound 10 nM) is −13.87%; in data set [2] (compound 100 nM), 100.00%; in data set [2] (compound 1 μM), 100.00%; in data set [2] (compound 10 μM), 100.00%; in data set [2] (compound 30 μM), 100.00%; in data set [2] (compound 50 μM), 100.00%.

On to `Nc1ncccc1C(=O)NCCCCCCCCCCCCN1CCCC1` [Compound 20, 2-Amino-N-(12-(pyrrolidin-1-yl)dodecyl)nicotinamide], for which, in data set [1], the viability at 1 µM was found to be 7.74%, the viability at 10 µM turned out to be 5.34%, the viability at 30 µM was 4.89% and the viability at 50 µM came out at 3.68%. Also, the inhibition at 0.01 µM in data set [2] (compound 10 nM) stood at 3.46%. Besides, the inhibition at 0.1 µM in data set [2] (compound 100 nM) is 100%. Further, the inhibition at 1 µM in data set [2] (compound 1 μM) was found to be 100%. For the same molecule, the inhibition at 10 µM in data set [2] (compound 10 μM) was determined as 100%. Besides, the inhibition at 30 µM in data set [2] (compound 30 μM) was determined as 100%. In data set [2] (compound 50 μM), the inhibition at 50 µM came out at 100%.

As for `Nc1ncccc1C(=O)NCCCCCCCCCCCCn1ncc2ccc(Cl)nc21` [Compound 123, 2-Amino-N-(12-(6-chloro-1H-pyrazolo[3,4-b]pyridin-1-yl)dodecyl)nicotinamide], in data set [1], the viability at 1 µM was 42.2%, the viability at 10 µM was found to be 42.2%, the viability at 30 µM was 44.6% and the viability at 50 µM is 48.8%. Further, the inhibition at 0.01 µM in data set [2] (compound 10 nM) was -2.54%. Besides, the inhibition at 0.1 µM in data set [2] (compound 100 nM) came out at 4.78%. Besides, in data set [2] (compound 1 μM), the inhibition at 1 µM was 48.4%. The inhibition at 10 µM in data set [2] (compound 10 μM) worked out at 100%. Moreover, the inhibition at 30 µM in data set [2] (compound 30 μM) came out at 100%. Further, the inhibition at 50 µM in data set [2] (compound 50 μM) is 100%.
